Structures can show the parent of a compound that is named as a salt.
molecular target: T1, human Mnk2a (Homo sapiens, UniProt Q9HBH9); experiment: Mnk2a in vitro kinase assay (indirect fluorescence polarization); assay type: biochemical; details: GST-Mnk2a pre-activated with ERK2, 20 μM ATP, 30 μM substrate peptide; read-out: MNK2 IC50
T1 construct: made in house; host or cells: E. coli BL21 (vector pGEX-4T1)
Method: Inhibitory potency of compounds against Mnk1, Mnk2a and other kinases was assessed with assays based on a format known to those skilled in the art as the indirect (competitive) fluorescence polarization. The assay detection system comprises a small fluorophore-labeled phospho-peptide (termed ligand) bound to a phospho-specific antibody. The product generated by the kinase reaction competes with the ligand for antibody binding. Based on the larger molecular volume of the bound ligand, which results in a lower rotation rate in solution, its emitted light has a higher degree of polarization than the one from the free ligand.
As a source of enzyme, human Mnk1 and human Mnk2a were expressed as GST fusion proteins in E. coli, purified to >80% homogeneity by glutathione affinity chromatography and activated in vitro with pre-activated ERK2. In brief, the open reading frames of human Mnk1 and Mnk2a were amplified from cDNA using the forward/reverse primer pairs
(utilized restriction sites underlined), respectively, and cloned into the BamHI and SalI sites of the vector pGEX-4T1 (Amersham, Sweden, cat. no. 27-4580-01). These constructs allow prokaryotic expression of Mnk1 or Mnk2a as fusion protein with a N-terminal glutathione S-transferase (GST) tag, referred to as GST-Mnk1 or GST-Mnk2a. The following expression and purification procedure was identical for GST-Mnk1 and GST-Mnk2a, referring in general to GST-Mnk, when not distinguishing between the two isoforms. Expression of GST-Mnk was in E. coli BL21 (Merck Biosciences, Germany, cat. no. 69449). Cells were grown in LB-Bouillon (Merck, Germany, cat. no. 1.10285) supplemented with 100 μg/ml ampicillin (Sigma, Germany, cat. no. A9518) at 37° C. When the culture had reached a density corresponding to an A600 of 0.8, an equal volume of ice cold LB/ampicillin was added, the culture transferred to 25° C. and induced for 4 h with 1 mM isopropyl thiogalactoside (IPTG, Roth, Germany, cat. no. 2316.4). Cells harvested by centrifugation were resuspended in 10 ml lysis buffer (50 mM tris(hydroxymethyl)aminomethane hydrochloride (Tris/HCl, Sigma, Germany, cat. no. T5941) pH 7.5, 300 mM sodium chloride (NaCl, Sigma, Germany, cat. no. S7653), 5% (w/v) glycerol (Sigma, Germany, cat. no. G5516), 3 mM DTT dithiotreitol (DTT, Sigma, Germany, cat. no. D9779)) per gram wet weight cell pellet. Lysates were prepared by disruption of cells with a sonifier and subsequent clearing by centrifugation at 38000 g for 45 min at 4° C.
The lysate was applied to a GSTPrep FF 16/10 column (Amersham, Sweden, cat. no. 17-5234-01) equilibrated with lysis buffer. Removal of unbound material was with 3 column volumes (CV) lysis buffer. Elution was with 2 CV of elution buffer (50 mM Tris/HCl pH 7.5, 300 mM NaCl, 5% (w/v) glycerol, 20 mM glutathione (Sigma, Germany, cat. no. G4251)). Peak fractions were pooled and the protein transferred into storage buffer (50 mM Tris/HCl pH 7.5, 200 mM NaCl, 0.1 mM ethylene glycol-bis(2-aminoethylether)-N,N,N′,N′-tetraacetic acid (EGTA, Aldrich, Germany, cat. no. 23, 453-2), 1 mM DTT, 10% (w/v) glycerol, 0.5 M sucrose (Sigma, Germany, cat. no. SO389) by gel filtration on a PD10 desalting column (Amersham, Sweden, cat. no. 17-0851-01). Aliquots were shock frozen in liquid nitrogen and stored at −80° C.
Activation of Mnk1 and Mnk2a was at a concentration of 2.5 μM of either purified GST-Mnk1 or GST-Mnk2a by incubation with 150 nM pre-activated NHis-ERK2 (see ERK2 assay for preparation) and 50 μM adenosine triphosphate (ATP, Sigma, cat. no. A2699) in a buffer comprising 20 mM N-(2-hydroxyethyl)piperazine-N′-(2-ethanesulfonic acid) (HEPES, Fluka, Germany, cat. no 54459)/potassium hydroxide (KOH, Roth, Germany, cat. no 6751.1) pH 7.4, 10 mM magnesium chloride (MgCl2, Sigma, Germany, cat. no. M2670), 0.25 mM DTT, 0.05% (w/v) polyoxyethylene 20 stearylether (Brij 78, Sigma, Germany, cat. no. P4019) (HMDB buffer) for 45 min at 30° C. […]

T1 sequence (Q9HBH9 whole entry): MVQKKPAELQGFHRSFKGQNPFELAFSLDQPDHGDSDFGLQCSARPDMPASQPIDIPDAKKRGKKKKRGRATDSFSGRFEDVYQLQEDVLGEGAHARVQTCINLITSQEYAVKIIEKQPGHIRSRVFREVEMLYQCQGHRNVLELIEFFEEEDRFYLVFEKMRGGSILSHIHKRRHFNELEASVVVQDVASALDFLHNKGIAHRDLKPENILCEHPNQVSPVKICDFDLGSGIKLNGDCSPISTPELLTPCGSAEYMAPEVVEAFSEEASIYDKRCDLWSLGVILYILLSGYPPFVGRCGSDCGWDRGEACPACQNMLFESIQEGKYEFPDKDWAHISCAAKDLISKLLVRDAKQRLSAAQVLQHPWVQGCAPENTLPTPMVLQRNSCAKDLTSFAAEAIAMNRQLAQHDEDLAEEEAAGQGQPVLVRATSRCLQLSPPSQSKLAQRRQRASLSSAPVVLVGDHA

IC50 [nM]	SMILES
51	Cc1c(C(=O)NCCn2cccn2)sc2ncnc(Nc3ccc(F)cc3OC3CCOCC3)c12 [Example 183]
43	Cc1c(C(=O)NCc2nccs2)sc2ncnc(Nc3ccc(F)cc3OC3CCCNC3)c12 (stereo not drawn) [Example 31]
21	Cc1c(C(=O)NCC2CN(C)CCO2)sc2ncnc(Nc3ccc(F)cc3O[C@H]3CCOC3)c12 (stereo partly drawn) [Example 110]
45	Cc1c(C(=O)NCCOC(C)C)sc2ncnc(Nc3ccc(F)cc3OC3CCOCC3)c12 [Example 232]
35	Cc1c(C(=O)NCCC#N)sc2ncnc(Nc3ccc(F)cc3OC3CCOCC3)c12 [Example 228]
5	Cc1c(C(=O)NC#N)sc2ncnc(Nc3ccc(F)cc3O[C@@H]3CCOC3)c12 [Example 100, (R)—N-cyano-4-(4-fluoro-2-(tetrahydrofuran-3-yloxy)phenylamino)-5-methylthieno[2,3-d]pyrimidine-6-carboxamide]
33	Cc1c(C(=O)NCCC[S+](C)[O-])sc2ncnc(Nc3ccc(F)cc3OC3CCOCC3)c12 (stereo not drawn) [Example 236]
53	Cc1c(C(=O)NCC2CCCCC2)sc2ncnc(Nc3ccc(F)cc3OC3CCCNC3)c12 (stereo not drawn) [Example 29]
23	Cc1c(C(=O)NCC#CCN(C)C)sc2ncnc(Nc3cccnc3O[C@@H]3CCCOC3)c12 [Example 264]
42	Cc1c(C(=O)NC2CCN(C)CC2)sc2ncnc(Nc3cccnc3OC3CCOCC3)c12 [Example 281]
66	Cc1c(C(=O)NCC(C)(C)O)sc2ncnc(Nc3ccc(F)cc3OC3CCOCC3)c12 [Example 190]
298	Cc1c(C(=O)NCCCN(C)C)sc2ncnc(Nc3cccnc3O[C@H]3CCOC3)c12 [Example 270, 5-Methyl-4-{2-[(S)-(tetrahydro-furan-3-yl)oxy]-pyridin-3-ylamino}-thieno[2,3-d]pyrimidine-6-carboxylic acid (3-dimethylamino-propyl)-amide]
22	COCCN1CCC[C@@H](Oc2cc(F)ccc2Nc2ncnc3sc(C(N)=O)c(C)c23)C1 [Example 75]
37	Cc1c(C(=O)NCC(O)CN(C)C)sc2ncnc(Nc3ccc(F)cc3OC3CCOCC3)c12 (stereo not drawn) [Example 256, 4-[4-Fluoro-2-(tetrahydro-pyran-4-yloxy)-phenylamino]-5-methyl-thieno[2,3-d]pyrimidine-6-carboxylic acid (3-dimethylamino-2-hydroxy-propyl)-amide-hydrochloride]
31	Cc1c(C(=O)NCCCN2CCC(F)(F)C2)sc2ncnc(Nc3ccc(F)cc3OC3CCOCC3)c12 [Example 124]
33	Cc1c(C(=O)NCCS(C)(=O)=O)sc2ncnc(Nc3ccc(F)cc3OC3CCOCC3)c12 [Example 180]
63	Cc1c(C(=O)NC2(CO)CC2)sc2ncnc(Nc3ccc(F)cc3OC3CCOCC3)c12 [Example 194]
72	Cc1c(C(=O)NCCOCCO)sc2ncnc(Nc3ccc(F)cc3OC3CCCNC3)c12 (stereo not drawn) [Example 50]
22	Cc1c(C(=O)NCC2CN(C)CCO2)sc2ncnc(Nc3ccc(F)cc3OC3CCOCC3)c12 (stereo not drawn) [Example 117]
21	Cc1c(C(=O)NCC#CCN(C)C)sc2ncnc(Nc3ccc(F)cc3OC3CCOCC3)c12 [Example 181]
43	Cc1c(C(=O)NCCC(=O)N(C)C)sc2ncnc(Nc3ccc(F)cc3OC3CCOCC3)c12 [Example 167]
49	CC(=O)NCCNC(=O)c1sc2ncnc(Nc3ccc(F)cc3OC3CCOCC3)c2c1C [Example 230]
33	CCOCCCNC(=O)c1sc2ncnc(Nc3ccc(F)cc3OC3CCOCC3)c2c1C [Example 218]
33	Cc1c(C(=O)NCCCS(C)(=O)=O)sc2ncnc(Nc3ccc(F)cc3OC3CCOCC3)c12 [Example 193]

IC50 [nM]	SMILES
20	Cc1c(C(=O)NCC2CN(C)CCO2)sc2ncnc(Nc3ccc(F)cc3O[C@@H]3CCOC3)c12 (stereo partly drawn) [Example 105]
39	Cc1c(C(=O)N[C@H]2CC[C@H](O)CC2)sc2ncnc(Nc3ccc(F)cc3OC3CCOCC3)c12 [Example 173]
16	Cc1c(C(=O)NCC#CCN)sc2ncnc(Nc3ccc(F)cc3OC3CCOCC3)c12 [Example 134]
36	COc1ccc(CNC(=O)c2sc3ncnc(Nc4ccc(F)cc4OC4CCCNC4)c3c2C)cc1 (stereo not drawn) [Example 45]
92	Cc1c(C(=O)NCC2(N)CCCC2)sc2ncnc(Nc3ccc(F)cc3OC3CCOCC3)c12 [Example 140]
50	CNC(=O)CNC(=O)c1sc2ncnc(Nc3ccc(F)cc3OC3CCOCC3)c2c1C [Example 175]
64	Cc1c(C(=O)NCc2cccc3ccccc23)sc2ncnc(Nc3ccc(F)cc3OC3CCCNC3)c12 (stereo not drawn) [Example 60]
9	Cc1c(C(N)=O)sc2ncnc(Nc3ccc(F)cc3O[C@@H]3CCCN(Cc4ncon4)C3)c12 [Example 72, 4-[4-Fluoro-2-((R)-1-[1,2,4]oxadiazol-3-ylmethyl-piperidin-3-yloxy)-phenylamino]-5-methyl-thieno[2,3-d]pyrimidine-6-carboxylic acid amide]
65	Cc1c(C(=O)NCCc2cn[nH]c2)sc2ncnc(Nc3ccc(F)cc3OC3CCCNC3)c12 (stereo not drawn) [Example 28]
25	Cc1c(C(=O)NCCNS(C)(=O)=O)sc2ncnc(Nc3ccc(F)cc3OC3CCOCC3)c12 [Example 189]
3	Cc1c(C(N)=O)sc2ncnc(Nc3ccc(F)cc3O[C@@H]3CCCN(CC(F)F)C3)c12 [Example 74, 4-{2-[(R)-1-(2,2-Difluoro-ethyl)-piperidin-3-yloxy]-4-fluoro-phenylamino}-5-methyl-thieno[2,3-d]pyrimidine-6-carboxylic acid amide]
34	Cc1c(C(=O)NCCS(N)(=O)=O)sc2ncnc(Nc3ccc(F)cc3OC3CCOCC3)c12 [Example 196]
58	Cc1c(C(=O)NCCF)sc2ncnc(Nc3ccc(F)cc3OC3CCCNC3)c12 (stereo not drawn) [Example 18]
65	Cc1c(C(=O)NCC(=O)N(C)C)sc2ncnc(Nc3ccc(F)cc3OC3CCOCC3)c12 [Example 157]
790	Cc1c(C(=O)N(C)CC2CCCCC2)sc2ncnc(Nc3ccc(F)cc3OC3CCCNC3)c12 (stereo not drawn) [Example 36]
12	Cc1c(C(N)=O)sc2ncnc(Nc3ccc(F)cc3O[C@@H]3CCCN(CCC(F)(F)F)C3)c12 [Example 79]
36	CC(=O)NCCCNC(=O)c1sc2ncnc(Nc3ccc(F)cc3OC3CCOCC3)c2c1C [Example 130]
42	Cc1c(C(=O)NCC(C)O)sc2ncnc(Nc3ccc(F)cc3OC3CCOCC3)c12 (stereo not drawn) [Example 158]
38	Cc1c(C(=O)NCCCc2c[nH]cn2)sc2ncnc(Nc3ccc(F)cc3OC3CCOCC3)c12 [Example 169]
66	Cc1c(C(=O)NCC2(C)CCN(C)C2)sc2ncnc(Nc3ccc(F)cc3OC3CCOCC3)c12 (stereo not drawn) [Example 204]
46	CONC(=O)c1sc2ncnc(Nc3cccnc3O[C@@H]3CCCOC3)c2c1C [Example 261]
19	Cc1c(C(=O)NCC#CCN(C)C)sc2ncnc(Nc3ccc(F)cc3O[C@@H]3CCOC3)c12 [Example 274]
70	CNCCNC(=O)c1sc2ncnc(Nc3ccc(F)cc3OC3CCOCC3)c2c1C [Example 146]
23	Cc1c(C(=O)NCCCCCN(C)C)sc2ncnc(Nc3ccc(F)cc3OC3CCOCC3)c12 [Example 168]

Source: US8648068B2, “Heterocycloalkyl-containing thienopyrimidines for pharmaceutical compositions” (Boehringer Ingelheim International GmbH, priority 2010, dated 2014)
